Results taken from paper PMC6440935, “Characterization and phase I study of CLR457, an orally bioavailable pan-class I PI3-kinase inhibitor” (Investigational New Drugs, 2018).
Where two headings read alike, the source gives them in different places.

Details: drug-related
Text: The primary objective was to define the maximum tolerated dose (MTD). Secondary objectives included assessments for safety, tolerability, pharmacokinetic (PK) profile, and preliminary antitumor activity.
Patients had histologically documented locally advanced or metastatic solid tumors harboring an activating PIK3CA mutation or amplification, PTEN loss of function, c-MET activation, [16, 17] […] Other key inclusion criteria included age ≥ 18 years, Eastern Cooperative Oncology Group performance status (ECOG-PS) ≤2, adequate organ function, measurable or non-measurable disease as determined by Response Evaluation Criteria in Solid Tumors (RECIST) version 1.1.
The starting dose for CLR457 was 5 mg QD, based on preclinical toxicology studies in accordance with ICH guidelines, and was administered at the same time each day ±2 h in a fasted state. Various doses were planned up to 300 mg QD until MTD determination.
Safety was evaluated by incidence, nature, severity, and relatedness of adverse events (AEs), and graded according to National Cancer Institute - Common Terminology Criteria for Adverse Events (NCI CTCAE) v4.0.3. DLTs were defined as any hematologic or non-hematologic ≥ Grade 3 AE assessed as possibly related to CLR457 that occurred within the first cycle (28 days) of treatment. In addition, uncontrolled (> 14 days) Grade 2 rash or hyperglycemia were also considered DLTs. All AEs regardless of attribution were collected until 30 days following the last administration of treatment or study discontinuation/termination.
Descriptive methods were used to tabulate toxicity and response endpoints in the clinical trial. All patients treated with CLR457 were included for safety. […] Dose escalation was guided by an adaptive Bayesian logistic regression model (BLRM) incorporating the escalation with overdose control (EWOC) principle. […] The study data (including DLTs during cycle 1 and other safety and PK data) were reviewed by the sponsor and trial investigators at each dose level. […] The Full Analysis Set (FAS) included all patients who received at least one dose of CLR457. Safety set included all patients who received at least one dose of CLR457 and had at least one valid post-baseline assessment. The Dose-determining set (DDS) included all patients from the safety set who either met the following minimum exposure criterion and had sufficient safety evaluations, or experienced a DLT during Cycle 1 (the first 28 days of dosing). The Pharmacokinetic analysis set included all patients who had at least one blood sample providing evaluable PK data.

## C[C@H]1OC(=O)N(c2cc(-c3cnc(N)nc3C(F)(F)F)nc(N3CCOCC3)n2)[C@H]1CO [CLR457]
40 mg, N = 5
  Decreased neutrophil count, All Grade: 0 n (%)
  Decreased neutrophil count, Grade ≥ 3: 0 n (%)
  Dehydration, All Grade: 0 n (%)
  Dehydration, Grade ≥ 3: 0 n (%)
  Diarrhea, All Grade: 3 (60.0) n (%)
  Diarrhea, Grade ≥ 3: 0 n (%)
  Dry mouth, All Grade: 0 n (%)
  Dry mouth, Grade ≥ 3: 0 n (%)
  Dry skin, All Grade: 0 n (%)
  Dry skin, Grade ≥ 3: 0 n (%)
  Dysgeusia, All Grade: 1 (20.0) n (%)
  Dysgeusia, Grade ≥ 3: 0 n (%)
  Fatigue, All Grade: 1 (20.0) n (%)
  Fatigue, Grade ≥ 3: 0 n (%)
  Headache, All Grade: 0 n (%)
  Headache, Grade ≥ 3: 0 n (%)
  Hyperglycemia, All Grade: 2 (40.0) n (%)
  Hyperglycemia, Grade ≥ 3: 0 n (%)
  Hypomagnesaemia, All Grade: 0 n (%)
  Hypomagnesaemia, Grade ≥ 3: 0 n (%)
  Maculo-papular rash, All Grade: 2 (40.0) n (%)
  Maculo-papular rash, Grade ≥ 3: 2 (40.0) n (%)
  Nausea, All Grade: 2 (40.0) n (%)
  Nausea, Grade ≥ 3: 0 n (%)
  Pneumonitis, All Grade: 0 n (%)
  Pneumonitis, Grade ≥ 3: 0 n (%)
  Pruritus, All Grade: 1 (20.0) n (%)
  Pruritus, Grade ≥ 3: 0 n (%)
  Pyrexia, All Grade: 0 n (%)
  Pyrexia, Grade ≥ 3: 0 n (%)
  Rash, All Grade: 0 n (%)
  Rash, Grade ≥ 3: 0 n (%)
  Stomatitis, All Grade: 3 (60.0) n (%)
  Stomatitis, Grade ≥ 3: 0 n (%)
  Vomiting, All Grade: 1 (20.0) n (%)
  Vomiting, Grade ≥ 3: 0 n (%)
  Weight decreased, All Grade: 1 (20.0) n (%)
  Weight decreased, Grade ≥ 3: 0 n (%)
70 mg, N = 6
  Asthenia, Grade ≥ 3: 0 n (%)
  Chills, All Grade: 0 n (%)
  Chills, Grade ≥ 3: 0 n (%)
  Colitis, All Grade: 1 (16.7) n (%)
  Colitis, Grade ≥ 3: 1 (16.7) n (%)
  Cough, All Grade: 0 n (%)
  Cough, Grade ≥ 3: 0 n (%)
  Decreased appetite, All Grade: 2 (33.3) n (%)
  Decreased appetite, Grade ≥ 3: 0 n (%)
  Decreased neutrophil count, All Grade: 1 (16.7) n (%)
  Decreased neutrophil count, Grade ≥ 3: 0 n (%)
  Dehydration, All Grade: 1 (16.7) n (%)
  Dehydration, Grade ≥ 3: 1 (16.7) n (%)
  Diarrhea, All Grade: 4 (66.7) n (%)
  Diarrhea, Grade ≥ 3: 1 (16.7) n (%)
  Dry mouth, All Grade: 1 (16.7) n (%)
  Dry mouth, Grade ≥ 3: 0 n (%)
  Dry skin, All Grade: 1 (16.7) n (%)
  Dry skin, Grade ≥ 3: 0 n (%)
  Dysgeusia, All Grade: 0 n (%)
  Dysgeusia, Grade ≥ 3: 0 n (%)
  Fatigue, All Grade: 1 (16.7) n (%)
  Fatigue, Grade ≥ 3: 0 n (%)
  Headache, All Grade: 1 (16.7) n (%)
  Headache, Grade ≥ 3: 0 n (%)
  Hyperglycemia, All Grade: 1 (16.7) n (%)
  Hyperglycemia, Grade ≥ 3: 0 n (%)
  Hypomagnesaemia, All Grade: 1 (16.7) n (%)
  Hypomagnesaemia, Grade ≥ 3: 0 n (%)
  Maculo-papular rash, All Grade: 2 (33.3) n (%)
  Maculo-papular rash, Grade ≥ 3: 1 (16.7) n (%)
  Nausea, All Grade: 2 (33.3) n (%)
  Nausea, Grade ≥ 3: 0 n (%)
  Pneumonitis, All Grade: 0 n (%)
  Pneumonitis, Grade ≥ 3: 0 n (%)
  Pruritus, All Grade: 1 (16.7) n (%)
  Pruritus, Grade ≥ 3: 0 n (%)
  Pyrexia, All Grade: 1 (16.7) n (%)
  Pyrexia, Grade ≥ 3: 0 n (%)
  Rash, All Grade: 2 (33.3) n (%)
  Rash, Grade ≥ 3: 1 (16.7) n (%)
  Stomatitis, All Grade: 2 (33.3) n (%)
  Stomatitis, Grade ≥ 3: 0 n (%)
  Vomiting, All Grade: 2 (33.3) n (%)
  Vomiting, Grade ≥ 3: 0 n (%)
  Weight decreased, All Grade: 1 (16.7) n (%)
  Weight decreased, Grade ≥ 3: 0 n (%)
100 mg, N = 11
  Asthenia, Grade ≥ 3: 0 n (%)
  Chills, All Grade: 2 (18.2) n (%)
  Chills, Grade ≥ 3: 0 n (%)
  Colitis, All Grade: 1 (9.1) n (%)
  Colitis, Grade ≥ 3: 1 (9.1) n (%)
  Cough, All Grade: 2 (18.2) n (%)
  Cough, Grade ≥ 3: 0 n (%)
  Decreased appetite, All Grade: 4 (36.4) n (%)
  Decreased appetite, Grade ≥ 3: 0 n (%)
  Decreased neutrophil count, All Grade: 1 (9.1) n (%)
  Decreased neutrophil count, Grade ≥ 3: 1 (9.1) n (%)
